From patent publication US20240189315A1, “Cyclic Pyridine Derivatives as cGAS Inhibitors” (Boehringer Ingelheim International GmbH, priority 2022, published 2024)
Where two headings read alike, the source gives them in different places.

Assays:
[1] = amide bond, HATU, 25.0 °C, 1.0 h
THP-1 = details: Table 3, page 67/68 of WO 2022/174012; read-out: cellular IC50-value group (IFNβ ELISA stimulated with THP-1); cited from earlier work
[2] = system: pathway directly downstream of cGAS in cGAMP-stimulated THP1-Dual cells; assay: cGAMP stimulated counter cell assay (THP1(cGAMP) IC50): IFN induction in cGAMP-stimulated THP1-Dual cells; format: cell-based, human; details: Homo sapiens, THP1-Dual, read-out: THP1(cGAMP) IC50
Summary of the method: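 THP1-Dual cells with IRF-driven Lucia luciferase reporter, stimulated by empty baculovirus (cGAS route) or by cGAMP (counter assay); 5000 cells/well, 8-point dilutions from 10 μM top, 1% DMSO, 18 h at 37° C. Luminescence read; IC50 by 4-parameter logistic fit against unstimulated low control.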

[3] = molecular target: T1, cellular cGAS activity in baculovirus-stimulated THP1-Dual cells (Homo sapiens (Human), UniProt Q8N884); assay: Human cGAS cell assay (THP1(vir) IC50): IFN induction in virus-stimulated THP1-Dual cells, IRF Lucia luciferase reporter; format: cell-based; details: read-out: THP1(vir) IC50;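 note: Eight-point dilution series starting at 10 µM, 1% DMSO, 18 h at 37 °C, luminescence read-out, virus-free wells as 0% and DMSO-treated virus-stimulated wells as 100%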
Human cGAS enzyme = Human cGAS enzyme (Homo sapiens (Human), UniProt Q8N884); assay: Human cGAS enzyme assay (hcGAS IC50, in vitro), cGAMP formation by RapidFire MS; format: biochemical;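 note: recombinant human cGAS activated by 45 bp dsDNA with 30 µM each ATP and GTP, 90 min, cGAMP vs cyclic-di-GMP standard by MS, 8-point titration from 10 µM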
[4] = molecular target: T2, cellular cGAS activity in dsDNA-stimulated human whole blood (Homo sapiens (Human), UniProt Q8N884); details: Table 4; compounds and methyl ester prodrugs of PCT/EP2022/062480 and PCT/EP2022/062496; read-out: hWB IC50; cited from earlier work
[5] = molecular target: T1, cellular cGAS activity in baculovirus-stimulated THP1-Dual cells; details: Table 4; compounds and methyl ester prodrugs of PCT/EP2022/062480 and PCT/EP2022/062496; read-out: THP1(vir) IC50; cited from earlier work
[6] = system: pathway directly downstream of cGAS in cGAMP-stimulated THP1-Dual cells; details: Table 4; compounds and methyl ester prodrugs of PCT/EP2022/062480 and PCT/EP2022/062496; cited from earlier work
[7] = molecular target: T2, cellular cGAS activity in dsDNA-stimulated human whole blood; assay: Human whole blood assay (hWB IC50): IFNα2a production after dsDNA transfection; format: cell-based; details: Table 2; compounds from WO 2020/142729;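 note: IFNα-2a in plasma measured by MSD electrochemiluminescence immunoassay after 22 h at 37 °C, 8-point dilution series from 10 µM top concentration, DMSO wells as controls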
Method: 6.3 Method: Human Whole Blood Assay (Human WB IC50) For the detection of cellular cGAS activity human whole blood was stimulated by transfection with double stranded DNA. Pathway activity was monitored by measuring the IFNα2α production.
Compounds were delivered as 10 mM DMSO solution and serially diluted and transferred to the 96-well cell culture plate (Corning #3595), prefilled with 20 μl OptiMEM (Gibco, #11058-021) in each well, using an Echo acoustic dispenser. Typically, 8 concentrations were used with the highest concentration at 10 μM in the final assay volume followed by ˜1:5 dilution steps. DMSO concentration was set to 0.1% in the final assay volume. The 96-well assay plate contained 10 test compounds, and DMSO in control wells.
Collection of human whole blood from 3 or more healthy donors (male or female, no medication for 7 days except contraceptive and thyroxine) as Na-Citrate blood (e.g. 3.8% in Monovettes from Sarstedt) was conducted in parallel. Whole blood was kept at room temperature for a maximum of 3 hours after collection until use in the assay.
160 μl of the whole blood samples was transferred to each well of the 96-well assay plates filled with compound/OptiMEM. All assay plates were prepared as duplicates with blood from different donors. Blood plates were kept at room temperature for 60 minutes and continuous shaking with 450 rpm, covered with the lid, but not sealed.
20 μl OptiMEM and 9.6:1 Fugene was added to all low control wells.
After covering assay plates with area seals and the lid, blood plates were kept at room temperature for 30 minutes and continuous shaking with 450 rpm, followed by an overnight incubation of 22 h at 37° C. in the incubator, without shaking.
For the detection of IFNα-2a in human plasma, the biotinylated capture antibody (Antibody set IFNA2, Meso Scale Diagnostics #B21VH-3, including coating and capture antibody) was diluted 1:17.5 in Diluent 100 (Meso Scale Diagnostics #R50AA-4), according to the manufacturer's directions. U-Plex MSD GOLD 96-well Small Spot Strepavidin SECTOR Plates (Meso Scale Diagnostics #L45SA-5) were coated with 25 μl diluted capture antibody. Coated plates were incubated for 60 min at room temperature under continuous shaking at 700 rpm. MSD IFNα-2a plates were washed three times with 150 μl wash buffer (1×HBSS, 0.05% Tween).
After blocking the plates with 100 μl block solution/well (1×HBSS with 0.2% Tween, 2% BSA) for 60 min at room temperature and continuous shaking at 700 rpm, plates were emptied as dry as possible by dumping just before continuing with the human plasma.
Whole Blood assay plates were centrifuged at 1600 rpm for 10 minutes. 25 μl of supernatant was transferred with a pipetting robot from each whole blood plate to the corresponding IFNα-2a plate.
Plates were sealed with microplate seals and kept at room temperature again under continuous shaking at 700 rpm for two hours.
Next MSD IFNα-2a plates were washed three times with 150 μl wash buffer (1×HBSS, 0.05% Tween), before adding 25 μl MSD SULFO-TAG IFNα-2a Antibody solution (1:100 diluted in Diluent 3 (Meso Scale Diagnostics #R50AP-2) to each well of the plates.
Afterwards plates were sealed with microplate seals and kept at room temperature again under continuous shaking at 700 rpm for two hours. Finally, MSD IFNα-2a plates were washed three times with 150 μl wash buffer (1×HBSS, 0.05% Tween). 150 μl 2× Read buffer was added to each well and plates were immediately measured with the MSD Sector S600 Reader using the vendor barcode.
Data Evaluation and Calculation:
For data evaluation and calculation,% control calculation of each well was based on the mean of high (DNA stimulated control) and mean of low (unstimulated control) controls by using the following formula:
The IC50-values were calculated using the standard 4 parameter logistic regression formula.

[8] = Table 3, Compound No. 5 of WO 2022/174012
[9] = Table 2, compounds from WO 2020/142729

T2 sequence (Q8N884 whole entry): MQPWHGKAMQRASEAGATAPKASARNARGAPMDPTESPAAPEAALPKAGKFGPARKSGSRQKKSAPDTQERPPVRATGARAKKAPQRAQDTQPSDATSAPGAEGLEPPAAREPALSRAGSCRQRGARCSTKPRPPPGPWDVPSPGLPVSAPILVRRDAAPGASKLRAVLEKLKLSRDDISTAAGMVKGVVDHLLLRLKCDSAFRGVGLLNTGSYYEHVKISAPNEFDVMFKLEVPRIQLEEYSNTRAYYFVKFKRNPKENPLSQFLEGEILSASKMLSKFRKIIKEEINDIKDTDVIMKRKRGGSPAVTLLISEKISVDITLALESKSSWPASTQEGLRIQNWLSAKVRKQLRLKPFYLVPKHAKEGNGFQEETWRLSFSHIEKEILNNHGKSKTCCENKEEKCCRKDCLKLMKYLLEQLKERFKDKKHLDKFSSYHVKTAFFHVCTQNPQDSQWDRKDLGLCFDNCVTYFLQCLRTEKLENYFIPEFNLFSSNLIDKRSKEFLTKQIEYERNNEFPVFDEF
T1 sequence (Q8N884 whole entry): as above
Sequence of Human cGAS enzyme (Q8N884 whole entry): as above

SMILES	IC50 [4]	IC50 [5]	IC50 [6]	other results
C[C@H]1CN2CC[C@]1(F)c1cc(Cl)cnc1O[C@H]1C[C@@H](C(=O)OC(C)(C)C)N(C1)c1nc(nc3c1oc1ccccc13)CC(=O)NCCCC2=O				ring closure, yield of all isomers ([1]; from C[C@H]1CN(C(=O)CCCN)CC[C@]1(F)c1cc(Cl)cnc1O[C@H]1C[C@@H](C(=O)OC(C)(C)C)N(c2nc(CC(=O)O)nc3c2oc2ccccc23)C1, DMF, 10.0 mM): 42%
C[C@H]1CN2CC[C@]1(F)c1cc(Cl)cnc1O[C@H]1C[C@@H](C(=O)OC(C)(C)C)N(C1)c1nc(nc3c1oc1ccccc13)CC(=O)NCCOC2=O				ring closure, yield of all isomers ([1]; from C[C@H]1CN(C(=O)OCCN)CC[C@]1(F)c1cc(Cl)cnc1O[C@H]1C[C@@H](C(=O)OC(C)(C)C)N(c2nc(CC(=O)O)nc3c2oc2ccccc23)C1, DMA, 15.75 mM): 11.3%
Cc1nc(N2C[C@@H](CC(=O)Nc3ccc(-c4ccccc4)cc3)C[C@H]2C(=O)O)c2oc3ccccc3c2n1 [Compound 5 (BBL0100455), reference compound]				IC50 (THP-1): < 1000 nM; IC50 [2, 8]: > 10000 nM; IC50 [3, 8]: > 10000 nM; IC50 (Human cGAS enzyme; Table 3, Compound No. 5 of WO 2022/174012 re-tested in the applicant's assay): 55 nM
CO[C@]1(c2cc(Cl)cnc2O[C@H]2C[C@@H](C(=O)O)N(c3nc(C(F)F)nc4c3oc3ccccc34)C2)CC(C)(C)S(=O)(=O)C[C@@H]1C [Ex. 1.05 of PCT/EP2022/062496]	135 nM	44 nM	13200 nM	
C[C@@H]1N(c2cc(Br)cnc2O[C@H]2C[C@@H](C(=O)O)N(c3nc(C(F)(F)F)nc4c3oc3ccccc34)C2)CCOC12COC2 [Ex. 1.10 of PCT/EP2022/062480]	33 nM	91 nM	16100 nM	
C#Cc1cnc(O[C@H]2C[C@@H](C(=O)O)N(c3nc(C(F)(F)F)nc4c3oc3ccccc34)C2)c(N2CCOC3(COC3)[C@@H]2C)c1 [Ex. 1.12 of PCT/EP2022/062480]	15 nM	7 nM	11900 nM	
C[C@H]1CS(=O)(=O)CC[C@]1(F)c1cc(Cl)cnc1O[C@H]1C[C@@H](C(=O)O)N(c2nc(C(F)F)nc3c2oc2ccccc23)C1 [Ex. 1.13 of PCT/EP2022/062496]	6 nM	6 nM	22500 nM	
C#Cc1cnc(O[C@H]2C[C@@H](C(=O)O)N(c3nc(C(F)(F)F)nc4c3oc3ccccc34)C2)c([C@@]2(F)CCS(=O)(=O)C[C@@H]2C)c1 [Ex. 2.12 of PCT/EP2022/062496]	8 nM	8 nM	21800 nM	
COc1ncccc1-c1cnc(O[C@H]2C[C@@H](C(=O)O)N(c3nc(C(F)(F)F)nc4c3oc3ccccc34)C2)c(N2CCOC3(COC3)[C@@H]2C)c1 [Ex. 3.14 of PCT/EP2022/062480]	26 nM	10 nM	7830 nM	
C[C@@H]1N(c2cccnc2O[C@H]2C[C@@H](C(=O)O)N(c3nc(C(F)F)nc4c3oc3ccccc34)C2)CCOC12COC2 [Ex. 4.04 of PCT/EP2022/062480]	77 nM	386 nM	> 16600 nM	
COC(=O)[C@@H]1C[C@H](Oc2ncccc2N2CCOC3(COC3)[C@@H]2C)CN1c1nc(C(F)F)nc2c1oc1ccccc12 [P01 of PCT/EP2022/062480]	1310 nM	358 nM	26100 nM	
C#Cc1cnc(O[C@H]2C[C@@H](C(=O)OC)N(c3nc(C(F)(F)F)nc4c3oc3ccccc34)C2)c([C@@]2(F)CCS(=O)(=O)C[C@@H]2C)c1 [P01 of PCT/EP2022/062496]	67 nM	11 nM	> 16600 nM	
COC(=O)[C@@H]1C[C@H](Oc2ncc(Br)cc2N2CCOC3(COC3)[C@@H]2C)CN1c1nc(C(F)(F)F)nc2c1oc1ccccc12 [P02 of PCT/EP2022/062480]	5330 nM	444 nM	17100 nM	
COC(=O)[C@@H]1C[C@H](Oc2ncc(Cl)cc2[C@@]2(F)CCS(=O)(=O)C[C@@H]2C)CN1c1nc(C(F)F)nc2c1oc1ccccc12 [P02 of PCT/EP2022/062496]	140 nM	29 nM	> 16600 nM	
C#Cc1cnc(O[C@H]2C[C@@H](C(=O)OC)N(c3nc(C(F)(F)F)nc4c3oc3ccccc34)C2)c(N2CCOC3(COC3)[C@@H]2C)c1 [P03 of PCT/EP2022/062480]	1090 nM	188 nM	22800 nM	
COC(=O)[C@@H]1C[C@H](Oc2ncc(Cl)cc2[C@@]2(OC)CC(C)(C)S(=O)(=O)C[C@@H]2C)CN1c1nc(C(F)F)nc2c1oc1ccccc12 [P03 of PCT/EP2022/062496]	1990 nM	202 nM	20600 nM	
COC(=O)[C@@H]1C[C@H](Oc2ncc(-c3cccnc3OC)cc2N2CCOC3(COC3)[C@@H]2C)CN1c1nc(C(F)(F)F)nc2c1oc1ccccc12 [P04 of PCT/EP2022/062480]	2750 nM	67 nM	> 16600 nM	
CC(C)(C(=O)N[C@H]1C[C@@H](C(=O)O)N(c2nc(C(F)(F)F)nc3c2oc2ccccc23)C1)c1cn[nH]c1 [compound 58]				IC50 [7]: > 9980 nM; IC50 [2, 9]: 23000 nM; IC50 [3, 9]: 21000 nM; IC50 (Human cGAS enzyme; Table 2, compounds from WO 2020/142729 re-tested in the applicant's assay): 320 nM
